The values below come from US8669254B2, “Pyridine, pyridazine, pyrimidine or pyrazine carboxamides as HDL-cholesterol raising agents” (Hoffman-La Roche Inc., priority 2010, dated 2014).

SMILES strings stand for the structures. Where two headings read alike, the source gives them in different places.

One series has as its target T1, human CB2 receptor (Homo sapiens, UniProt P34972).
T1 construct: expressed in transfected cells; host or cells: human embryonic kidney (HEK) cells, Semliki Forest Virus system, membrane preparation
The series can be described thus: CB2 receptor affinity ([3H]-CP-55,940 displacement). The following applies: HEK cell membranes, radioligand [3H]-CP-55,940. It is filed as binding. On the procedure: The affinity of the compounds of the invention for cannabinoid CB2 receptors was determined using membrane preparations of human embryonic kidney (HEK) cells in which the human CB2 receptor is transiently transfected using a Semliki Forest Virus system in conjunction with [^3H]-CP-55,940 as radioligand. After incubation of freshly prepared cell membrane preparation with the [^3H]-ligand, with or without addition of compounds of the invention, separation of bound and free ligand was performed by filtration over glass fiber filters. Radioactivity on the filter was measured by scintillation counting.
(§1) The ability of the compounds to displace the radioligand [^3H]-CP-55,940 was measured at a concentration of 10 μM and values provided as [% inhibition @ 10 μM] both for the CB 1 and CB2 receptor assay, The lower % inhibition is, the lower the likelihood of side effects based on CB1 or CB2 receptor inhibition is.

Another series has as its target T2, human CB1 receptor (Homo sapiens, UniProt P21554).
T2 construct: expressed in transfected cells; host or cells: human embryonic kidney (HEK) cells, Semliki Forest Virus system, membrane preparation
The series can be described thus: CB1 receptor affinity ([3H]-CP-55,940 displacement). The following applies: read-out: CB1 receptor affinity [% inhibition @ 10 μM]. It is filed as binding. On the procedure: The affinity of the compounds of the invention for cannabinoid receptors was determined using membrane preparations of human embryonic kidney (HEK) cells in which the human CB1 receptor is transiently transfected using a Semliki Forest Virus system in conjunction with [3H]-CP-55,940 as radioligand. After incubation of freshly prepared cell membrane preparation with the [^3H]-ligand, with or without addition of compounds of the invention, separation of bound and free ligand was performed by filtration over glass fiber filters. Radioactivity on the filter was measured by scintillation counting.
as §1

The subject of a further series is ABCA1 protein. The series can be described thus: Detection of upregulation of ABCA1 protein in cells (ApoA-I binding, high content image analysis). It is filed as cell-based. The following applies: THP-1 macrophage cells; for % increase of ABCA1 at 3 μM: compound at 3 μM, 24 hrs. On the procedure:
The ability of compounds of the invention to increase the level of ABCA1 protein is determined in replicate cultures of THP-1 macrophage cells in 96-well microplates. Cells are plated at an initial density of 100,000 cells/well in 100 μl medium and differentiated to adherent macrophages with the addition of PMA (100 nM) for 68 hrs in 10% fetal bovine serum, 3 μl/L of b-mercaptoethanol, RPMI-1640 medium. Then, cells are incubated with RPMI-1640 medium containing 1% FCS, 25 μg/ml acetylated LDL, for 24 hours at 37°. Following incubation with acetylated LDL, cells are washed twice with 50 μl PBS and incubated with 100 μl of RPMI-1640 medium containing the compound of interest solubilized in DMSO for an additional 24 hrs. The final DMSO concentration in presence of cells is maintained at 0.5%. ApoA-I binding assay using High Content Image Analysis is initiated by replacing with fresh medium, RPMI without Phenol Red, 0.2% BSA containing AlexaFluor®647 labeled ApoA-I for 2 h/37° C./5% CO2. Then, cells are fixed with 4% Formaldehyde in PBS (15 min, RT). Following Nuclei are stained with Hoechst solution (3 μM PBS) and Cytoplasm with Cell Mask Blue (2 μg/ml PBS), 15 min, RT. Finally the stained cells are fixed with a second round of formaldehyde treatment. Fixed stained cells are washed and kept in PBS at 4° C. and can be read immediately until one month after preparation.
The Alexa Fluor 647-labeled Apolipoprotein A-I (20 nM) was prepared as follows: Human recombinant Apolipoprotein A-I (ApoA-I) was exchanged to a buffer of 0.02 M NaHCO3 at pH 8.2 on an NAP desalting column (GE Healthcare) and brought to a concentration to 40 μM (1.13 mg/ml) by adjustment with the same buffer. The ApoA-I was fluorescently labeled by incubation with Alexa Fluor carboxylic acid succimidyl ester (Alexa Fluor 647, Invitrogen A-20006) at a 2:1 molar ratio (Alexa to ApoA-I) for 1 h under shaking at RT). The remaining unconjugated label was removed by buffer exchange to 0.02M NaHCO3 at pH 8.2.
Imaging and data collection were performed on an OPERA confocal microplate imaging reader using a 20× water immersion objective and UV360 or 405 laser to identify the cell nuclei and a 635 laser to identify the fluorescent ApoA-I. Eight fields of view are captured per well. Image capture and analysis was performed with the Acapella software. Background fluorescence detected in control wells without ApoA-I was subtracted.
Using XLfit3 program (ID Business Solutions Ltd. UK), the model 205 for Dose Response One Site is used to calculate the EC50 values. […] Particularly, the compounds of the present invention have EC50 values in a range of 0.1 μM to 3 μM.

T1 sequence (P34972 whole entry): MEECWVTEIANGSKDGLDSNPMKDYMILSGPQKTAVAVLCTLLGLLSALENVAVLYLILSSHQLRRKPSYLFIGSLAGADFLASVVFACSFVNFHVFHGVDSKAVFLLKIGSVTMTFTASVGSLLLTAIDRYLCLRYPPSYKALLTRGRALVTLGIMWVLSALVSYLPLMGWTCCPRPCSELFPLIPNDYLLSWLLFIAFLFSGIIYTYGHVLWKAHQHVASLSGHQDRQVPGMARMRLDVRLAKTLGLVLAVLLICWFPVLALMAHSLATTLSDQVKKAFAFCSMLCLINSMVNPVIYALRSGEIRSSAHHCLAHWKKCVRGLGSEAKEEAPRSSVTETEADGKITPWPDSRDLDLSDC
T2 sequence (P21554 whole entry): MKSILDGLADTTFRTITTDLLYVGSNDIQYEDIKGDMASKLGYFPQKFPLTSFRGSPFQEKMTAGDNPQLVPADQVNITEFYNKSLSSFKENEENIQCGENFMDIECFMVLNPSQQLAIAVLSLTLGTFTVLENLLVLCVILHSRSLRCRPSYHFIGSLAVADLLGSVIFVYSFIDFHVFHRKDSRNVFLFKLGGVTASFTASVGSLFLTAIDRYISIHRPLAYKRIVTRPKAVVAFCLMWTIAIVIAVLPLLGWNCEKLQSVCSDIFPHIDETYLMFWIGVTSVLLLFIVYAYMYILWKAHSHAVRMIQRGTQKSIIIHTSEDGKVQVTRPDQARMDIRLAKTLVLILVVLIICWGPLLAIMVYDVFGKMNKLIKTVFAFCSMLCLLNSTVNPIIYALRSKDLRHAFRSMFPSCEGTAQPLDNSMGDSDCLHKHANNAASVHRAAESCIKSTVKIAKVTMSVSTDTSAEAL

By inhibition is commonly meant the relative decrease from the control value, in per cent. A word on the EC50: it is the concentration needed to bring the measured effect to its halfway point. The low end stands for higher potency in that assay, the high end for lower potency in that assay. For orientation: melting point means the temperature, or range, at which the solid turns liquid. `CO/N=C1\CCCC[C@@H]1NC(=O)c1cnc(O[C@@H](C)C(F)(F)F)c(-c2ccc(Cl)cc2)c1` [Example 30, 5-(4-Chlorophenyl)-N-((S,E)-2-(methoxyimino)cyclohexyl)-6-((S)-1,1,1-trifluoropropan-2-yloxy)nicotinamide] came in with a melting point of 119 to 121 °C. In addition, on human CB2 receptor, at 10 µM the inhibition was 12.7%. Further, at human CB1 receptor (10 μM, HEK cell membranes, radioligand [3H]-CP-55,940), the inhibition at 10 µM amounted to 24.1%. The molecule also returned an EC50 in the series with ABCA1 protein (ABCA1 protein detection assay) of 180 nM. For the same molecule, the “% increase of ABCA1 at 3 μM” value in the series on ABCA1 protein came out at 91.3% @ 3 μM.
Turning to `CO/N=C(/CNC(=O)c1cnc(O[C@@H](C)C(F)(F)F)c(-c2ccc(Cl)cc2)c1)C1CC1` [Example 31, 5-(4-Chloro-phenyl)-N-{2-cyclopropyl-2-[(E)-methoxyimino]-ethyl}-6-((S)-2,2,2-trifluoro-1-methyl-ethoxy)-nicotinamide], the melting point fell in the range of 103 to 106 °C. In addition, on human CB2 receptor, the inhibition at 10 µM was 3.6%. Further, at human CB1 receptor, the inhibition at 10 µM came to 39.3%. Moreover, the “% increase of ABCA1 at 3 μM” value with ABCA1 protein is given as 74.5% @ 3 μM.
